Source: EP0165151A1, “Peptide derivatives as renin inhibitors, process for their preparation and their therapeutical application” (SANOFI, priority 1984, dated 1985)
Square brackets hold non-standard residues; d marks the D form. Peptide text beside a SMILES is read from it. * marks the point of attachment. Sta = CC(C)C[C@H](N)[C@@H](O)CC(=O)O; Isovaleryl = CC(C)CC(=O)*; Nle = CCCC[C@H](N)C(=O)O

Test: Solubility in water
Type: physicochemical
Conditions: pH : 7,4
From the text: Dans les mêmes conditions les composés SR 42406 sous forme de chlorhydrate et SR 43054 B possèdent une solubilité dans l'eau de 1 % et 4 % environ.

Structure (SMILES)	solubilité dans l'eau	solubilité dans l'eau (sous forme de chlorhydrate)
CCCC[C@H](NC(=O)[C@H](Cc1ccccc1)NC(=O)CC(C)C)C(=O)N[C@@H](CC(C)C)[C@@H](O)CC(=O)N[C@@H](C)C(=O)N[C@@H](CC(C)C)[C@@H](O)CC(=O)N[C@@H](CCCCN)C(=O)O [SR 42 654, iVa - Phe - Nle - Sta - Ala - Sta - Lys - OH] (Isovaleryl-F[Nle][Sta]A[Sta]K-OH)	soluble dans l'eau à environ %	
CCCC[C@H](NC(=O)[C@H](Cc1ccccc1)NC(=O)CC(C)C)C(=O)N[C@@H](CC(C)C)[C@@H](O)CC(=O)N[C@@H](C)C(=O)N[C@@H](CC(C)C)[C@@H](O)CC(=O)N[C@@H](CCCNC(=N)N)C(=O)OC [SR 42406, iVa - Phe - Nle - Sta - Ala - Sta - Arg - OMe] (Isovaleryl-F[Nle][Sta]A[Sta]R-OMe)		~1%
CCCC[C@H](NC(=O)[C@H](Cc1ccccc1)NC(=O)CC(C)C)C(=O)N[C@@H](CC(C)C)[C@@H](O)CC(=O)N[C@@H](C)C(=O)N[C@@H](CC(C)C)[C@@H](O)CC(=O)N[C@@H](CC(=O)O)C(=O)O [SR 43504 B, iVa-Phe-Nle-Sta-Ala-Sta-Asp-OH, Disel de trishydroxyméthyl-aminométhane] (Isovaleryl-F[Nle][Sta]A[Sta]D-OH)	~4%	
